For data set [1], the system named is Pulmonary Hypertension model. Nature of the data set: Pulmonary hypertension model, in vivo efficacy. On the set-up: species or system rat; key to in vivo Efficacy: ++ effective at 5 mg/kg; − no effect at 5 mg/kg; + effective at 15 mg/kg. The procedure:
As used herein, efficacy refers to the maximal effect that can be produced by a compound. Efficacy can be determined by methods known to those of skill in the art. For example, it can be determined by the properties of the compound and its receptor-effector system and is reflected in the plateau of the concentration-effect curve. In vivo efficacy refers to efficacy which is determined in an animal model. For example, in vivo efficacy of the compounds described herein can be determined by amelioration of hypoxia-induced pulmonary hypertension in rat. In this context, in vivo efficacy refers to the ability of a compound to restore an elevated pulmonary artery pressure to a normal value. […] J. Physiol. […] The in vivo activity was measured in a pulmonary hypertension model and is a measure of the activity of the compounds at selected dosages.

The next data set can be described thus: Papp (Table 4). It counts as in vitro ADME.
A short description of data set [2]: Oral half-life and peak plasma levels in rat. It counts as in vivo. From the text:
As used herein, bioavailability refers to the rate and extent of absorption. Methods for determining bioavailability are well known to those of skill in the art. For example, bioavailability of any of the compounds described herein can be determined empirically by administration of the compound to an animal, followed by taking blood samples over time and measuring the blood concentration of the compound. In vivo half life (t½) is defined as the time it takes for the concentration of the compound in the blood to be reduced by one-half. Estimations of the area under the curve for intravenous administration can be used to estimate the area under the curve for oral administration, yielding bioavailability data. See, e.q., Milo Gibal (1991) Biopharmaceutics and Pharmacology, 4th edition (Lea and Sediger).
Table 4 lists oral half-life, bioavailability, and in vivo activity of selected exemplary compounds. The in vivo activity was measured in a pulmonary hypertension model and is a measure of the activity of the compounds at selected dosages.

For another data set, the target named is T1, human ETA receptors (Homo sapiens, UniProt P25101).
T1 construct: endogenous in cells; host or cells: TE 671 cells (ATCC HTB 139)
T1 sequence (P25101 21-427): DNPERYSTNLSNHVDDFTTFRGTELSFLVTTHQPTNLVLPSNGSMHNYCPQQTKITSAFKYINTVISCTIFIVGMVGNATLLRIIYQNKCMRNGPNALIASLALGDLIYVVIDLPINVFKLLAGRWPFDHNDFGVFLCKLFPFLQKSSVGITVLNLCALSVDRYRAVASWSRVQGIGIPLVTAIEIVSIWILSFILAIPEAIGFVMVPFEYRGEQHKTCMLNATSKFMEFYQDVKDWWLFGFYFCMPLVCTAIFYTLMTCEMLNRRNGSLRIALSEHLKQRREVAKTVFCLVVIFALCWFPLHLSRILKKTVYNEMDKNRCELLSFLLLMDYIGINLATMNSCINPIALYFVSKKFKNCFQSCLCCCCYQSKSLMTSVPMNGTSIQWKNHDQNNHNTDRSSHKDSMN
Put plainly: Binding Test #1: inhibition of 125I-ET-1 binding to ETA receptors (TE 671 cell membranes). The note with it: for IC50: read-out: ETA. An outline of the steps:
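Radioligand competition in triplicate: ¹²⁵I-endothelin-1 displaced by test compound (1 nM–100 μM final) from ETA-bearing TE 671 cell membranes in HEPES pH 7.4 binding buffer with NaCl, MgCl2 and bacitracin. Incubation 16–18 h at 4 °C (or at 24 °C); 80 nM ET-1 defines nonspecific binding; pellet radioactivity gives percent inhibition.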

In another data set the target is T2, human ETB receptor (Homo sapiens, UniProt P24530).
T2 construct: expressed in transfected cells; host or cells: COS7 cells
T2 sequence (P24530 27-442): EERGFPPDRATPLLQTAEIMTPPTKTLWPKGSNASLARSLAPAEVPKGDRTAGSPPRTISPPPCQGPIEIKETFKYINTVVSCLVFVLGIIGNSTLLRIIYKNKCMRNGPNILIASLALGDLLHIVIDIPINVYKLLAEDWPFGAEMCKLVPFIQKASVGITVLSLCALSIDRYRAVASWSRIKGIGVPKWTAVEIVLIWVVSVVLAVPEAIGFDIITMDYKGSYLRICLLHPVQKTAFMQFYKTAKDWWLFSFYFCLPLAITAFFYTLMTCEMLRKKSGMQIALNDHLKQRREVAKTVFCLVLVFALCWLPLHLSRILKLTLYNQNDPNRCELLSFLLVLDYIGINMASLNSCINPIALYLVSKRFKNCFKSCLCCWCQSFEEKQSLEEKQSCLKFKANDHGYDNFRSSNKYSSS
Nature of the data set: Binding Test #2: inhibition of 125I-ET-1 binding to ETB receptors (transfected COS7 cell membranes). The note with it: Table 1, read-out: ETB. The method in brief: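 Competition with 125I-ET-1 for binding to membranes from COS7 cells transfected with human ETB receptor, used at 1 μg/50 μl binding buffer. Membranes prepared in HEPES pH 7.4 with aprotinin, including a DNase/MnCl2 step at 37 °C for 30 min.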

The subject of data set [3] is DOCA-salt hypertensive rat. Put plainly: Deoxycorticosterone acetate (DOCA)-salt hypertensive rat model. The class given is in vivo. The procedure: E. Deoxycorticosterone Acetate (DOCA)-Salt Hypertensive Rat Model for Assessing in vivo Activity of Selected Compounds
Selected compounds disclosed herein have been tested for activity in the deoxycorticosterone acetate (DOCA)-salt hypertensive rat model. To perform these tests, silastic MDX4-4210 elastomer implants containing 47 mg (DOCA) were prepared according to the method of Ornmsbee et al. ((1973) the J. Pharm. Sci. 62:255-257). Briefly, DOCA is incorporated into silicon rubber implants for sustained release. To prepare the implants the DOCA is incorporated into unpolymerized silicone rubber, catalyst is added and the mixture is cast in a hemicylindrical shape.
Sprague Dawley rats (7-8 weeks old) were unilaterally nephrectomized under ketamine anesthesia and a DOCA-implant was placed on the left lateral dorsal abdomen of the animal. The rats were allowed to recover for three weeks. During recovery they were permitted free access to normal rat chow and 0.9% NaCl drinking solution in place of drinking water. The rats develop hypertension within 3 weeks.
All animals were used in the tests between 21 and 30 days post surgery. The mean arterial blood pressure in these animals ranged from 165-200 mm Hg.
On the day of experimentation, catheters were inserted under brevital anesthesia into the right femoral artery for measurement of blood pressure, and into the right femoral vein for administration of a selected compound. The animals were placed in a restrainer and allowed to recover for a minimum of 60 min or until a steady mean arterial blood pressure was recorded. At that time, the selected compound or control vehicle was administered either intravenously, as a 60 minute infusion, or orally by oral gavage. Blood pressure was recorded continuously for a further 10 hrs.

Data set [4] relates to ET-1-induced pressor response. Put plainly: ET-1-induced pressor responses in conscious, autonomically blocked rats. To be noted: in 30 min at dosages as low as 30 mg/kg. It counts as in vivo, rat. The procedure: Animals were placed in a restrainer and allowed to regain consciousness. Thirty minutes later autonomic blockade was administered (atropine methyl nitrate, 3 mg/kg, IV, followed by propranalol, 2 mg/kg, IV). An hour later animals received a bolus injection of vehicle (0.5 ml) followed thirty minutes later by intravenous bolus administration of ET-1 (Control, 1 μg/kg). Following recovery from this challenge, test-compounds were administered by intravenous bolus administration (0.5 ml) and then re-challenged with ET-1 thirty minutes later. Results are expressed as the percent inhibition of the ET-1-induced pressor response after administration of the test compound compared to the pressor response induced by the control ET-1 challenge. In some cases a third ET-1 challenge was administered ninety minutes after administration of the test compound.

For a further data set, the system named is ETB receptors. The note with it: tissues in which ETB receptors predominate; cited from earlier work.
Another data set concerns the target ETA receptor. To be noted: cited from earlier work.
Another data set concerns isolated vascular strips. The note with it: contractile agent in isolated vascular strips; cited from earlier work.
[5] abbreviates: Table 1, † incubation at 24° C.

Like-named read-outs stand apart in the source and are kept apart here. Marks after values point to notes of the source that are not given here.

Consider `CC(=O)c1cc(C)cc(C)c1NC(=O)c1sccc1S(=O)(=O)Nc1onc(C)c1Cl` [N-(2-acetyl-4,6-dimethylphenyl)-3-(((4-chloro-3-methyl-5-isoxazolyl)amino)sulfonyl)-2-thiophenecarboxamide], for which, in [1] (0.3 mg/kg in vivo), the “in vivo Efficacy (footnote e)” value is on record as “^eeffective at 0.3 mg/kg in vivo”. In [1] (Pulmonary Hypertension model), the “in vivo Efficacy” value is reported as “++^e”. In “Papp (Table 4)”, the “Papp (cell printed as %)” value is 40%. Besides, the “Peak Plasma Levels” value in [2] (in vivo) was 57 µg/mL. Besides, the “POt½ in Rat” value in [2] (oral) was 8.6 h. Further, the ETA/ETB selectivity at human ETA receptors (Table 3) was 34000^∥. Besides, the IC50 on human ETA receptors (Table 3, † incubation at 24° C.) turned out to be 0.55 nM.
With `Cc1noc(NS(=O)(=O)c2c(Cc3ccc4c(c3)OCO4)sc3ccccc23)c1Br` [N-(4-bromo-3-methyl-5-isoxazolyl)-2-[3,4-(methylenedioxy)benzyl]benzo[b]thiophene-3-sulfonamide], the IC50 on human ETB receptor (incubation at 4° C.) came out at 0.324 ± 0.78 µM; on human ETB receptor († incubation at 24° C.), 0.939 ± 0.262 µM; on human ETA receptors (Table 1, incubation at 4° C.) it was 1.5 ± 1.4 nM; on human ETA receptors (setting [5]), 7.4 ± 1.1 nM. For the same compound, the “effect on blood pressure” value in data set [3] was “effective in decreasing blood pressure”.
As for `Cc1noc(NS(=O)(=O)c2ccsc2C(=O)Nc2ccccc2O)c1Br` [N-(4-bromo-3-methyl-5-isoxazolyl)-2-[(2-hydroxyphenyl)aminocarbonyl]thiophene-3-sulfonamide], the melting point (in general, the temperature, or range, at which the solid turns liquid) was 42 to 44 °C.
Still for that read-out and setting: the result for `Cc1ccc(OCc2sccc2S(=O)(=O)Nc2onc(C)c2Br)cc1` [N-(4-bromo-3-methyl-5-isoxazolyl)-2-[(4-methylphenoxy)methyl]thiophene-3-sulfonamide] reads 128 to 130 °C.
In turn, `Cc1noc(NS(=O)(=O)c2ccc(COCc3ccccc3)s2)c1Br` [N-(4-bromo-3-methyl-5-isoxazolyl)-5-(benzyloxymethyl)thiophene-2-sulfonamide] gave a melting point of 92 °C. The IC50 on human ETB receptor († incubation at 24° C.) is 9 µM. At human ETA receptors (setting [5]), the IC50 came out at 12000 nM.
Regarding `COc1ccc(NC(=O)c2sccc2S(=O)(=O)Nc2onc(C)c2Cl)c(C)c1` [N-(4-chloro-3-methyl-5-isoxazolyl)-2-[4-methoxy-2-methylphenyl)aminocarbonyl]thiophene-3-sulfonamide], in [4], the reduction of pressure entry is “about 30%”.
For `Cc1ccc(NC(=O)c2sccc2S(=O)(=O)Nc2onc(C)c2Cl)cc1` [N-(4-chloro-3-methyl-5-isoxazolyl)-2-[(4-tolyl)aminocarbonyl]thiophene-3-sulfonamide], the “effect on blood pressure” value in data set [3] was “effective in decreasing blood pressure”.
Take `COc1cc(C#N)c(NC(=O)c2sccc2S(=O)(=O)Nc2onc(C)c2Cl)cc1OC` [N-(4-chloro-3-methyl-5-isoxazolyl)-2-[{2-cyano-4,5-dimethoxyphenyl)aminocarbonyl]thiophene-3-sulfonamide]: the reduction of pressure entry in data set [4] is “about 30%”.
For `Cc1noc(NS(=O)(=O)c2ccsc2CC(O)c2ccc3c(c2)OCO3)c1Cl` (stereo not drawn) [N-(4-chloro-3-methyl-5-isoxazolyl)-2-[β-hydroxy(3,4-methylenedioxy)phenylethyl]thiophene-3-sulfonamide], the results for the IC50 on human ETB receptor († incubation at 24° C.) and on human ETA receptors (setting [5]) were 16 µM and 53 nM, respectively. For the same compound, in data set [3], the “effect on blood pressure” value is “effective in decreasing blood pressure”.
In the case of `CC(=O)c1cc2c(cc1NC(=O)c1sccc1S(=O)(=O)Nc1onc(C)c1Cl)OCO2` [N-(4-chloro-3-methyl-5-isoxazolyl)-2-{[2-acetyl-4,5-(methylenedioxy)phenyl]aminocarbonyl}thiophene-3-sulfonamide], the IC50 was determined as 31.6 µM on human ETB receptor († incubation at 24° C.) and 10 nM on human ETA receptors (setting [5]). For the same compound, the reduction of pressure result in data set [4] is reported as “about 30%”.
On to “cyclo(D-Glu-L-Ala-allo-D-lle-L-Leu-D-Trp) [BE-18257B]”, for which the “concentration up to which binding is not inhibited” value in the data set with ETB receptors was over 100 µM. In addition, the IC50 at ETA receptor (aortic smooth muscle) was 1400 nM; at ETA receptor (cultured aortic smooth muscle cells) it was 500 nM; on ETA receptor (ventricle membranes), 800 nM.
In the case of “endothelin-1: potent twenty-one amino acid peptide vasoconstrictor”, the concentration for a half-maximal effect (EC50) (in general, the midpoint of the concentration-response curve) in the data set with isolated vascular strips was 0.4 nM.

Values taken from patent US6683103B2, “Sulfonamides for treatment of endothelin-mediated disorders” (Texas Biotechnology Corporation, priority 1997, dated 2004).
